ChEMBL document CHEMBL1201862, “PubChem BioAssay data set” (2004)
“And” between values parts separate entries of the source, which are not always exact repeats. Equal entries are not always repeated.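 Assay format: 96-well plates, 48-hour exposure. GI50 marks 50% less growth.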 The source made the active and inactive calls. Rule as the data show it: active = GI50 up to about 1.1 µM and inactive = higher.

Assays:
Assay in all cases: NCI anticancer screen, dose series, 48 h
[1] = test system: DU-145
[2] = test system: NCI/ADR-RES
[3] = test system: Hs-578T
[4] = test system: SF-539
[5] = test system: MCF7
[6] = test system: NCI-H460
[7] = test system: OVCAR-3
[8] = test system: ACHN
[9] = test system: SK-MEL-28
[10] = test system: OVCAR-8
[11] = test system: KM12
[12] = test system: IGROV-1
[13] = test system: TK-10
[14] = test system: SK-OV-3
[15] = test system: SW-620
[16] = test system: SF-268
[17] = test system: SNB-19
[18] = test system: PC-3
[19] = test system: RPMI-8226

Measured: GI50

COc1nc2ncc([C@@H](OC(C)=O)[C@@H](COC(C)=O)OC(C)=O)nc2c(=O)[nH]1
inactive: [1] > 100 µM | [2] > 100 µM | [3] > 100 µM | [4] > 100 µM | [5] > 100 µM | [6] > 100 µM | [7] > 100 µM | [8] > 100 µM | [9] > 100 µM | [10] > 100 µM | [11] > 100 µM | [12] > 100 µM | [13] > 100 µM | [14] > 100 µM | [15] > 100 µM | [16] > 100 µM and 83.4 µM | [17] > 100 µM | [18] > 100 µM | [19] > 100 µM

CC1(C)N=c2c(ncn2N)=C(C(N)=O)N1
inactive: [1] > 100 µM | [2] > 100 µM | [3] > 100 µM | [4] > 100 µM | [5] > 100 µM | [6] > 100 µM | [7] > 100 µM | [8] > 100 µM | [9] > 100 µM | [10] > 100 µM | [11] > 100 µM | [12] > 100 µM | [13] > 100 µM | [14] > 100 µM | [15] > 100 µM | [16] > 100 µM | [17] > 100 µM | [18] > 100 µM | [19] > 100 µM

COC(=O)c1c(OC(C)=O)ccc2c1c1c(n2Cc2ccccc2)C(=O)c2ccccc2C1=O
inactive: [1] 17 µM | [2] 24 µM | [3] 19.9 µM | [4] 17.9 µM | [5] 33.9 µM | [6] 30.1 µM | [7] 17.6 µM | [8] 30.1 µM | [9] 21.4 µM | [10] 27.7 µM | [11] 20.5 µM | [12] 20.1 µM | [13] 33.7 µM | [14] 23.6 µM | [16] 26.5 µM | [17] 35.3 µM | [18] 22.4 µM | [19] 15.7 µM

O=C1/C(=C/c2ccccc2O)N=C(c2ccccc2)N1c1nc2ccccc2s1
inactive: [1] 27.3 µM | [2] 14.5 µM | [3] 16 µM | [4] 20.7 µM | [5] 3.37 µM | [6] 11.2 µM | [7] 7.43 µM | [8] 23.7 µM | [9] 21.3 µM | [10] 23.9 µM | [11] 7.73 µM | [12] 15.6 µM | [13] 23.8 µM | [14] 23.4 µM | [15] 11.2 µM | [16] 20.2 µM | [18] 15.7 µM | [19] 19.1 µM

CCN(CC)c1ccc(/C=C/C=C2C(=O)NC(=S)NC2=O)cc1
inactive: [1] 20.9 µM | [2] 10.4 µM | [3] 11 µM | [4] 13.9 µM | [5] 27 µM | [6] > 100 µM | [7] 16.6 µM | [8] > 100 µM | [9] 4.91 µM | [10] 14.3 µM | [11] 38 µM | [12] > 100 µM | [13] > 62.2 µM | [14] > 100 µM | [15] > 33.9 µM | [16] 22.5 µM | [17] 43.7 µM | [18] > 69.3 µM | [19] > 100 µM

Nc1nc2cc(CNc3ccc(C(=O)O)cc3)ccc2nc1-c1ccccc1
inactive: [1] 44.6 µM | [2] > 100 µM | [3] > 100 µM | [4] 74.5 µM | [5] > 100 µM | [6] > 100 µM | [7] > 100 µM | [8] > 100 µM | [9] > 100 µM | [10] > 100 µM | [12] > 100 µM | [13] > 100 µM | [14] > 100 µM | [15] > 100 µM | [16] > 100 µM | [17] > 100 µM | [18] > 100 µM | [19] > 100 µM
